This is an account of results in patent publication US10889569B2, “Condensed ring group azacyclobutyl triazole derivative, preparation method therefor and use thereof in medicine” (Jiangsu Hengrui Medicine Co., Ltd., priority 2016, dated 2021).

Series [1] is described as follows: Brain permeability of rats (Kp-unbound). The conditions noted are these: both sexes, rat, not told, po; SD rats, 10 mg/kg intragastrically, 0.5 h after administration; read-out: Kp-unbound (blood-brain permeability index). It is filed as in vivo. The procedure: The activity of the compounds of the present invention on the brain permeability of rats was determined by the following experimental method:
Four SD rats (half male and half female) were maintained in a 12 hours light/12 hours dark cycle, in a constant temperature of 24±3° C. and a humidity of 50-60%, and free access to food and water. The compounds were administered intragastrically to the rats after fasting overnight. The administration dosage was 10 mg/kg. The administration group was sacrificed after blood collection at 0.5 h to 2 h after administration (blood volume: 0.5 ml). The blood sample was stored in heparinized tubes, and centrifuged for 10 minutes at 3500 rpm to separate the plasma, which was marked as plasma 1 and stored at […]. The animal was decapitated after sacrificing, and the brain tissue was collected. The residual blood in the brain tissue was sucked with a filter paper, which was marked as brain tissue 1, and stored at 0° C. ten minutes later. Another three animals were treated by the same method as that of administration group to obtain blank plasma and brain tissue 2.
The drug compounds were diluted to 50 mM with DMSO to obtain a stock solution I. An appropriate amount of stock solution I was diluted with methanol to obtain a diluted stock solution II (200 μM). 10 μl of stock solution II was moved to a 1.5 ml Eppendorf tube, and then added with 990 μl of blank plasma, and mixed well to obtain 2 μM of plasma sample 2 (concentration of DMSO≤0.2%), which was used for the determination of plasma protein binding rate at this concentration. […]
The equilibrium dialysis tube of RED Device Inserts was inserted into a 96-well plate. […] The chromatographic peak area ratios of the total drug (plasma chamber) and the free drug (buffer chamber) to the internal standard were determined directly by the LC/MS/MS method established above respectively, and the free percent (fu plasma %) was calculated.
Brain tissue protein binding equilibrium dialysis process: the blank brain tissue 2 was formulated into a blank brain homogenate with PBS (pH 7.4) according to a dilution factor of 11, and added with compound to formulate a 2 μM brain homogenate. Other procedures were the same with that of plasma protein binding, the chromatographic peak area ratios of the total drug (brain homo chamber) and the free drug (buffer chamber) to the internal standard were determined by the established LC/MS/MS method respectively, and the free percent (fu brain hom %) was calculated.
1) The drug concentrations in plasma 1 and brain tissue 1 of rats 0.5 h after administration were determined by the established LC/MS/MS method respectively, which were the total concentration (Ctotal, p and Ctotal, b); […]

A short description of series [2]: Pharmacokinetics assay in rats after intragastrical administration. It is filed as in vivo, SD rats. The conditions noted are these: Sprague-Dawley, rat, plasma, po, 30 mg/kg, intragastric, male rats. The procedure: Male SD rats were used as test animals. The drug concentration in plasma at different time points was determined by LC/MS/MS method after intragastrical administration of the compounds of Examples 2, 17, 34, 37, 38, 39 and 43 to rats. The pharmacokinetic behavior of the compounds of the present invention was studied and evaluated in rats.
Twenty-one healthy adult male Sprague-Dawley (SD) rats were purchased from Shanghai Jiesijie Laboratory Animal Co., LTD, with Certificate No.: SCXK (Shanghai) 2013-0006, and equally divided into 7 groups (3 rats per group).
A certain amount of the test compound was weighed, and added with 2.5% by volume of DMSO and 97.5% by volume of 10% solutol HS-15 to formulate a […] colorless, clear and transparent solution.
After an overnight fast, SD rats were administered intragastrically the test compounds at an administration dosage of 30.0 mg/kg and an administration volume of 10.0 mL/kg.
The rats were intragastrically administered the compounds of Examples 2, 17, 34, 37, 38, 39 and 43. 0.2 mL of blood was taken from the orbital sinus before administration and at 0.5, 1.0, 2.0, 4.0, 6.0, 8.0, 11.0 and 24.0 hours after administration. The samples were stored in heparinized tubes, and centrifuged for 10 minutes at 4° C. at 3500 rpm to separate the plasma. The plasma samples were stored at −20° C. The rats were fed 2 hours after administration.
The content of the test compounds in the plasma of rats after intragastrical administration of the test compounds at different concentrations was determined: 50 μL of rat plasma at each time after administration was taken, added with 50 μL of the internal standard solution of camptothecin (100 ng/mL) and 150 μL of acetonitrile, vortex-mixed for 5 minutes, and centrifuged for 10 minutes (4000 rpm). 3 μL of the supernatant was taken from the plasma samples for LC/MS/MS analysis.

A further series deals with human OTR (Homo sapiens, UniProt P30559). The series can be described thus: Inhibition activity on human OTR (Fluo-4 calcium assay, HEK293/human OTR stably transfected cells). It is filed as cell-based. The following applies: oxytocin 3 nM. The method, boiled down:
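HEK293 cells stably expressing human OTR, loaded with Fluo-4 for 30 min at 37 °C, were preincubated 10 min at room temperature with compound (stocks 10^1–10^6 nM). Oxytocin (3 nM as added) then triggered calcium signal, read immediately at 494/516; IC50 fitted from fluorescence versus concentration.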

Series [3] deals with T1, oxytocin receptor (Homo sapiens (Human), UniProt P30559). The following applies: cited from earlier work.
T1 sequence (P30559 whole entry): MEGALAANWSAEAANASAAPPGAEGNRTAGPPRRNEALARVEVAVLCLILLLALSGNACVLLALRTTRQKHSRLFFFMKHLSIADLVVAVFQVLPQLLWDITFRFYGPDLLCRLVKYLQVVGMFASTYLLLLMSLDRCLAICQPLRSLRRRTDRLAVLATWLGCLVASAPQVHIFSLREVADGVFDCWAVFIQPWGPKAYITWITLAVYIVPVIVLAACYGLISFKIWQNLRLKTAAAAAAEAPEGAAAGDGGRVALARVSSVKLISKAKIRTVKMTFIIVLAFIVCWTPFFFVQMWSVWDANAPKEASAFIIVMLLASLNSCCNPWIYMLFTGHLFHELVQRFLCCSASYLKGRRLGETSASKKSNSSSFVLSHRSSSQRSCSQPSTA
The target in series [4] is oxytocin receptor (Rattus norvegicus (Rat), UniProt P70536). The conditions noted are these: intraventricular and intrathecal injection; cited from earlier work.
oxytocin receptor (Rattus norvegicus (Rat), UniProt P70536), sequence (P70536 whole entry): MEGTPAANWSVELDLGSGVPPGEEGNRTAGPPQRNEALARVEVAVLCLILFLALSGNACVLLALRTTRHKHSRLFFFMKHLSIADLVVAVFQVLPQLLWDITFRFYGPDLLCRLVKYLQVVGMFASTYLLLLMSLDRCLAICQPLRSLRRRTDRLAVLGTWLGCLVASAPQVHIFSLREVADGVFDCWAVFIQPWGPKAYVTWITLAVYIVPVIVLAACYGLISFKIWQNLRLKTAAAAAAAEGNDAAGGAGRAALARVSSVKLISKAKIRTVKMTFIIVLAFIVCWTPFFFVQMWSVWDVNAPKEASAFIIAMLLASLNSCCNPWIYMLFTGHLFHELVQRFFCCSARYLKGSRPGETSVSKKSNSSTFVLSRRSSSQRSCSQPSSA
The target of series [5] is T1, oxytocin receptor. The following applies: orally 400 mg or 800 mg, patient with prospermia, phase II; cited from earlier work.

With `COCc1nnc(N2CC(Oc3ccc(F)cc3Cl)C2)n1-c1ccc(OC)nc1` [5-(3-(3-(2-Chloro-4-fluorophenoxy)azetidin-1-yl)-5-(methoxymethyl)-4H-1,2,4-triazol-4-yl)-2-methoxypyridine, reference compound], the Kp at 0.5 h in series [1] was 0.064.

As to `COc1ccc(-n2c(COC(F)F)nnc2N2CC(c3cccc4cc(F)ccc34)C2)cn1` [Example 38, 5-(3-((Difluoromethoxy)methyl)-5-(3-(6-fluoronaphthalen-1-yl)azetidin-1-yl)-4H-1,2,4-triazol-4-yl)-2-methoxypyridine], the Vd/F in series [2] (read-out: Apparent distribution volume Vz/F) came to 27.8 ± 22.8 L/kg. In addition, in series [2] (read-out: Area under curve AUC), the AUC worked out at 5630 ± 3010 ng·h/mL. Further, the CL/F in series [2] (read-out: Clearance CLz/F) is 104 ± 44 mL/min/kg. Further, the half-life in series [2] (read-out: Half-life T1/2 (converted)) is 170 ± 114 min. The Cmax in series [2] (read-out: Plasma concentration Cmax) came to 1060 ± 270 ng/mL. Also, the MRT in series [2] (read-out: Residence time MRT) came to 4.19 ± 1.25 h. For the same compound, the concentration ratio (Kp) at 0.5 h in series [1] amounted to 0.175. Also, the IC50 at human OTR was determined as 2 nM.

As for `CC[C@H](C)[C@@H]1C(=O)N[C@H](C2Cc3ccccc3C2)C(=O)N1[C@@H](C(=O)N1CCOCC1)c1ccc(C)nc1C` [GSK557296], on oxytocin receptor [3], the “Efficacy after oral administration in phase II clinical trials” value is on record as “did not show corresponding efficacy”. Also, the “Ejaculation behavior of rats” value at oxytocin receptor [4] is reported as “can effectively inhibit the ejaculation behavior of rats only when being administered at specific central sites”.

As for `COCc1nnc(N2CC(Oc3ccc(F)cc3Cl)C2)n1-c1ccc(OC)nc1` [IX-01], the Vaginal ejaculation latency entry at oxytocin receptor [5] is given as “can significantly prolong the vaginal ejaculation latency of the patient”.
